Molecular target: β-lactoglobulin (Bos taurus, UniProt P02754)
Assay: isothermal titration calorimetry
Assay type: binding

Chain of β-lactoglobulin (P02754 17-178): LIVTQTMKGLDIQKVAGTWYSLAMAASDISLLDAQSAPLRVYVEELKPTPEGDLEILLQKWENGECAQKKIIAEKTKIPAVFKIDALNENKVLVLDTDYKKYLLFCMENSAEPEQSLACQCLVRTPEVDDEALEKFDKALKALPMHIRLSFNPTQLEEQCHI

CCCCCC(=O)OC[C@@H](O)COP(=O)(O)O [HHGP, 1-hexanoyl-2-hydroxy-sn-glycero-3-phosphate]
Kd: 1.4 µM

Reference: publication PMC3672471 (The Biochemical journal, 2009)
